In patent US4645773A, “β-carboline-3-oxadiazolyl derivatives, and their use as psychotropic agents” (Schering Aktiengesellschaft, priority 1984, dated 1987):

Tests used:
benzodiazepine receptor [1] = assay: displacement of 3H-flunitrazepam specific binding to benzodiazepine receptors (in vitro), rat forebrain membranes; details: rat forebrain suspension, 3H-flunitrazepam 1.0 nM, 0° C., 40-60 min, pH 7.1
Description: These sites are called benzodiazepine receptors. The displacement activity of the compounds of the invention has been determined by determining the IC50 value and the ED50 value.
The IC50 value represents the concentration which causes a displacement of 50% of the specific binding of ^3 H-flunitrazepam (1.0 nM, 0° C.) in samples comprising a total volume of 0.55 ml of a suspension of brain membrane, e.g from rats.
The displacement test is performed as follows:
0.50 ml of a suspension of non-treated rat forebrain in 25 mM KH2 PO4, pH=7.1 (5-10 mg tissue/sample) is incubated for 40-60 minutes at 0° C. together with ^3 H-diazepam (specific activity 87 Ci/mmol, 1.0 nM) or ^3 H-flunitrazepam (specific activity 87 Ci/mmol, 1.0 nM). After incubation, the suspension is filtered through "Whatman GF/C" glass fiber filters, the residue washed twice with cold buffer solution and the radioactivity measured by scintillation counting.
The test is repeated except that prior to the addition of the radioactive labelled benzodiazepine, a given amount or an excessive amount of the compound, the displacement capability of which is to be determined, is added. Based on the data obtained the IC50 value can be calculated.

benzodiazepine receptor [2] = assay: in vivo inhibition of 3H-flunitrazepam binding to benzodiazepine receptors in mouse forebrain; details: mice, usually subcutaneous, 3H-flunitrazepam i.v. 15 min later, killed after further 20 min
Description: The ED50 value represents the dose (mg/kg) of a test substance which causes the specific binding of flunitrazepam to benzodiazepine receptors in a living brain to be reduced to 50% of the control value. Such an in vivo test is carried out as follows:
Groups of mice are injected with the test substance at different doses and usually subcutaneously. 15 minutes later ^3 H-flunitrazepam is administered intravenously to the mice and after further 20 minutes the mice are killed. Their forebrain membranes are removed and the radioactivity of these forebrain membranes is measured by scintillation counting. The ED50 value is determined from dose-response curves.

SMILES	Affinity for the benzodiazepine receptor, inhibition of 3H-flunitrazepam binding, IC50 (in vitro) (benzodiazepine receptor [1]) [ng/mL]	inhibition of 3H-flunitrazepam binding, ED50 (in vivo) (benzodiazepine receptor [2]) [mg/kg]
CCc1noc(-c2ncc3[nH]c4cccc(OC5C=CCCC5)c4c3c2COC)n1 (stereo not drawn)	0.4	0.75
COCc1c(-c2nc(C)no2)ncc2[nH]c3cccc(OCc4ccccc4)c3c12	0.4	0.9
CCc1nc(-c2ncc3[nH]c4cccc(OCc5ccccc5)c4c3c2COC)no1	0.5	1.0
CCc1noc(-c2ncc3[nH]c4cccc(OC(C)C)c4c3c2C)n1	0.5	0.4
CCCOc1cccc2[nH]c3cnc(-c4nc(CC)no4)c(COC)c3c12 [3-[5-(3-ethyl-1,2,4-oxadiazole)-yl]-4-methoxymethyl-5-propoxy-β-carboline]	0.3	1.4
CCOCc1cccc2[nH]c3cnc(-c4nc(CC)no4)c(C)c3c12	0.26	0.4
CCc1noc(-c2ncc3[nH]c4cccc(OC(C)C)c4c3c2COC)n1	0.2	0.2
CCc1noc(-c2cc3c(cn2)[nH]c2ccc(C#CCN(C)C)cc23)n1 [3-[5-(3-ethyl-1,2,4-oxadiazole)-yl]-6-(3-dimethylaminopropargyl)-β-carboline]	0.4	7.9
CCc1noc(-c2ncc3[nH]c4cccc(OC5CCC5)c4c3c2COC)n1	0.4	0.6
